Results reported in PubChem BioAssay (NCI).
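A five-concentration, 48-hour dose response in 96-well plates underlies each endpoint, interpolated linearly between surrounding concentrations. Here, GI50 denotes the concentration required for 50% inhibition of growth. TGI: concentration producing complete growth inhibition.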

What was measured:
Experiment in all cases: inhibition of tumour cell growth, NCI panel, 48 h
KM12 colon = tested on: KM12 colon
SR leukemia = tested on: SR leukemia
MALME-3M melanoma = tested on: MALME-3M melanoma
DU-145 prostate = tested on: DU-145 prostate
NCI-H522 lung = tested on: NCI-H522 lung
LOX IMVI melanoma = tested on: LOX IMVI melanoma
BT-549 breast = tested on: BT-549 breast
T-47D breast = tested on: T-47D breast
COLO 205 colon = tested on: COLO 205 colon
A498 renal = tested on: A498 renal
HOP-92 NSCLC = tested on: HOP-92 NSCLC
HL-60(TB) leukemia = tested on: HL-60(TB) leukemia
HS 578T breast = tested on: HS 578T breast
786-0 renal = tested on: 786-0 renal
HT29 colon = tested on: HT29 colon
HCT-116 colon = tested on: HCT-116 colon
M14 melanoma = tested on: M14 melanoma
CAKI-1 renal = tested on: CAKI-1 renal
SF-268 CNS = tested on: SF-268 CNS
MCF7 breast = tested on: MCF7 breast
NCI-H226 lung = tested on: NCI-H226 lung
ACHN renal = tested on: ACHN renal
SN12C renal = tested on: SN12C renal
NCI-H460 lung = tested on: NCI-H460 lung
SK-MEL-5 melanoma = tested on: SK-MEL-5 melanoma
SF-539 CNS = tested on: SF-539 CNS
MDA-MB-468 breast = tested on: MDA-MB-468 breast
EKVX NSCLC = tested on: EKVX NSCLC
A549 NSCLC = tested on: A549 NSCLC
HCC-2998 colon = tested on: HCC-2998 colon
SNB-19 CNS = tested on: SNB-19 CNS
TK-10 renal = tested on: TK-10 renal
OVCAR-8 ovarian = tested on: OVCAR-8 ovarian
NCI-H23 lung = tested on: NCI-H23 lung
SK-MEL-28 melanoma = tested on: SK-MEL-28 melanoma
SF-295 CNS = tested on: SF-295 CNS
NCI/ADR-RES ovarian = tested on: NCI/ADR-RES ovarian
IGROV1 ovarian = tested on: IGROV1 ovarian
MDA-MB-435 = tested on: MDA-MB-435
RXF 393 renal = tested on: RXF 393 renal
HOP-62 NSCLC = tested on: HOP-62 NSCLC
MOLT-4 leukemia = tested on: MOLT-4 leukemia
K-562 leukemia = tested on: K-562 leukemia
OVCAR-4 ovarian = tested on: OVCAR-4 ovarian
OVCAR-3 ovarian = tested on: OVCAR-3 ovarian
OVCAR-5 ovarian = tested on: OVCAR-5 ovarian
RPMI-8226 leukemia = tested on: RPMI-8226 leukemia
UACC-62 melanoma = tested on: UACC-62 melanoma
SK-OV-3 ovarian = tested on: SK-OV-3 ovarian
UACC-257 melanoma = tested on: UACC-257 melanoma
SW-620 colon = tested on: SW-620 colon
U251 CNS = tested on: U251 CNS
CCRF-CEM leukemia = tested on: CCRF-CEM leukemia
HCT-15 colon = tested on: HCT-15 colon
PC-3 prostate = tested on: PC-3 prostate

Compound: COc1c(B(O)O)cc(F)cc1-c1nc2c(F)cc3[nH]ncc3c2c2c1CCCC2
- GI50 (KM12 colon): 4.47 µM
- TGI (KM12 colon): 31.6 µM
- GI50 (SR leukemia): 1.4 µM
- TGI (SR leukemia): 11.4 µM
- GI50 (MALME-3M melanoma): 14.8 µM
- TGI (MALME-3M melanoma): 34.2 µM
- GI50 (DU-145 prostate): 6.53 µM
- TGI (DU-145 prostate): 56.4 µM
- GI50 (NCI-H522 lung): 3.66 µM
- TGI (NCI-H522 lung): 43.6 µM
- GI50 (LOX IMVI melanoma): 2.43 µM
- TGI (LOX IMVI melanoma): 16.5 µM
- GI50 (BT-549 breast): 0.0845 µM
- TGI (BT-549 breast): 6.85 µM
- GI50 (T-47D breast): 12.5 µM
- TGI (T-47D breast): 61.9 µM
- GI50 (COLO 205 colon): 4.85 µM
- TGI (COLO 205 colon): 19.3 µM
- GI50 (A498 renal): 12.8 µM
- TGI (A498 renal): 46.5 µM
- GI50 (HOP-92 NSCLC): 0.0199 µM
- TGI (HOP-92 NSCLC): 86.5 µM
- GI50 (HL-60(TB) leukemia): 2.42 µM
- TGI (HL-60(TB) leukemia): 10.9 µM
- GI50 (HS 578T breast): 0.293 µM
- TGI (HS 578T breast): 63.9 µM
- GI50 (786-0 renal): 2.02 µM
- TGI (786-0 renal): 18.7 µM
- GI50 (HT29 colon): 14.6 µM
- TGI (HT29 colon): > 100 µM
- GI50 (HCT-116 colon): 2.1 µM
- TGI (HCT-116 colon): 36.7 µM
- GI50 (M14 melanoma): 16.4 µM
- TGI (M14 melanoma): 35.4 µM
- GI50 (CAKI-1 renal): 0.158 µM
- TGI (CAKI-1 renal): 1.58 µM
- GI50 (SF-268 CNS): 3.05 µM
- TGI (SF-268 CNS): 81.1 µM
- GI50 (MCF7 breast): 3.83 µM
- TGI (MCF7 breast): 23.1 µM
- GI50 (NCI-H226 lung): 3.3 µM
- TGI (NCI-H226 lung): 72.8 µM
- GI50 (ACHN renal): 1.38 µM
- TGI (ACHN renal): 42.4 µM
- GI50 (SN12C renal): 2.9 µM
- TGI (SN12C renal): 62.2 µM
- GI50 (NCI-H460 lung): 4.1 µM
- TGI (NCI-H460 lung): 28.9 µM
- GI50 (SK-MEL-5 melanoma): 14.4 µM
- TGI (SK-MEL-5 melanoma): 33.2 µM
- GI50 (SF-539 CNS): 0.596 µM
- TGI (SF-539 CNS): 12.7 µM
- GI50 (MDA-MB-468 breast): 11.7 µM
- TGI (MDA-MB-468 breast): 39.9 µM
- GI50 (EKVX NSCLC): 5.04 µM
- TGI (EKVX NSCLC): 63.4 µM
- GI50 (A549 NSCLC): 3.53 µM
- TGI (A549 NSCLC): 86.5 µM
- GI50 (HCC-2998 colon): 11.8 µM
- TGI (HCC-2998 colon): 40.1 µM
- GI50 (SNB-19 CNS): 3.46 µM
- TGI (SNB-19 CNS): 66.4 µM
- GI50 (TK-10 renal): 0.275 µM
- TGI (TK-10 renal): > 100 µM
- GI50 (OVCAR-8 ovarian): 4.82 µM
- TGI (OVCAR-8 ovarian): > 100 µM
- GI50 (NCI-H23 lung): 7.03 µM
- TGI (NCI-H23 lung): 31.3 µM
- GI50 (SK-MEL-28 melanoma): 13.1 µM
- TGI (SK-MEL-28 melanoma): 38.4 µM
- GI50 (SF-295 CNS): 10.7 µM
- TGI (SF-295 CNS): 40.1 µM
- GI50 (NCI/ADR-RES ovarian): 8.18 µM
- TGI (NCI/ADR-RES ovarian): > 100 µM
- GI50 (IGROV1 ovarian): 7.75 µM
- TGI (IGROV1 ovarian): 45.9 µM
- GI50 (MDA-MB-435): 13.8 µM
- TGI (MDA-MB-435): 34.2 µM
- GI50 (RXF 393 renal): 0.0887 µM
- TGI (RXF 393 renal): 1.9 µM
- GI50 (HOP-62 NSCLC): 2.95 µM
- TGI (HOP-62 NSCLC): 54 µM
- GI50 (MOLT-4 leukemia): 2.75 µM
- TGI (MOLT-4 leukemia): 30.9 µM
- GI50 (K-562 leukemia): 19.1 µM
- TGI (K-562 leukemia): > 100 µM
- GI50 (OVCAR-4 ovarian): 14.9 µM
- TGI (OVCAR-4 ovarian): 59.4 µM
- GI50 (OVCAR-3 ovarian): 15.5 µM
- TGI (OVCAR-3 ovarian): 72.6 µM
- GI50 (OVCAR-5 ovarian): 5.77 µM
- TGI (OVCAR-5 ovarian): 66 µM
- GI50 (RPMI-8226 leukemia): 2.14 µM
- TGI (RPMI-8226 leukemia): 19.6 µM
- GI50 (UACC-62 melanoma): 4.09 µM
- TGI (UACC-62 melanoma): 17.1 µM
- GI50 (SK-OV-3 ovarian): 4.1 µM
- TGI (SK-OV-3 ovarian): 77.2 µM
- GI50 (UACC-257 melanoma): 14.6 µM
- TGI (UACC-257 melanoma): 62.8 µM
- GI50 (SW-620 colon): 4.15 µM
- TGI (SW-620 colon): > 100 µM
- GI50 (U251 CNS): 5.34 µM
- TGI (U251 CNS): > 100 µM
- GI50 (CCRF-CEM leukemia): 3.07 µM
- TGI (CCRF-CEM leukemia): 80.3 µM
- GI50 (HCT-15 colon): 4.45 µM
- TGI (HCT-15 colon): 44.5 µM
- GI50 (PC-3 prostate): 4.9 µM
- TGI (PC-3 prostate): > 100 µM
